# According to US8623429B2, “Stabilized anthocyanin compositions” (Omnica GmbH, priority 2007, dated 2014):
# Experiments:
# Type in all cases: physicochemical
# [1] = Example 5: degradation over time of black currant anthocyanosides at 37° C., pH 7.0, with/without GSH (HPLC); details: pH 7.0, 37° C.; for %-residual anthocyanosides (% left): 4 hours
# Description: Sample a) 60 mg black currant extract [35% anthocyanosides] (0.037 mmol anthocyanosides expressed as cyanidin-3-O-rutinoside) were added to a 100 ml flask, filled to volume with sodium phosphate buffer (5% [w/w], pH=7.0) and stirred until dissolution was complete. A 1 ml sample was taken immediately, acidified with formic acid to pH=1.0 and analyzed by HPLC for the content of anthocyanosides. The remaining solution was kept at 37° C. (water bath) with stirring and 1 ml samples (Blank Samples), representing unprotected degradation, were taken every 15 minutes. The samples were analyzed for selected anthocyanosides by HPLC.
# (§1) Sample b) 20 mg reduced L-glutathione (0.065 mmol) were added to a 100 ml flask with 60 ml sodium phosphate buffer (5% [w/w], pH=7.0) and stirred until dissolution was complete. 60 mg black currant extract [35% anthocyanosides] (0.037 mmol anthocyanosides expressed as cyanidin-3-O-rutinoside) were added, the flask was filled to volume with sodium phosphate buffer (5% [w/w], pH=7.0) and kept for at 37° C. (water bath) with stirring. Every 15 minutes 1 ml samples were taken and analyzed for selected anthocyanosides by HPLC.
# (§2) Samples were prepared as outlined below in HPLC Analytical Method. Test stability samples were immediately acidified (to block degradation) and injected undiluted following the detailed description provided below.
# [2] = Example 9: stability of bilberry extract anthocyanosides, 4 hours at 37° C., pH 7.0, with/without L-cysteine; details: for Peak Area, Fresh solution: bilberry extract 60 mg in buffer pH 7.0, fresh sample; for % left, L-cysteine 20 mg / Peak Area, L-cysteine 20 mg / % left, Blank / Peak Area, Blank: pH 7.0, 37° C., 4 hours; for % left, Blank / Peak Area, Blank: unprotected
# Description: Sample a) 60 mg bilberry extract [37% anthocyanosides] (0.048 mmol anthocyanosides expressed as cyanidin-3-O-glucoside) were added to a 100 ml flask with 60 ml sodium phosphate buffer (5% [w/w], pH=7.0), and stirred until dissolution was complete. A 1 ml sample was taken immediately and acidified with formic acid to pH=1.0 and analyzed by HPLC for the content of anthocyanosides (Fresh Sample). The remaining solution was kept for 4 hours at 37° C. (water bath) with stirring. Thereafter another sample (Blank sample), representing unprotected degradation, was taken and acidified.
# Sample b) 20 mg L-cysteine […] were added to a 100 ml flask with 60 ml sodium phosphate buffer (5% [w/w], pH=7.0) and stirred until dissolution was complete. 60 mg bilberry extract [37% anthocyanosides] (0.048 mmol expressed as cyanidin-3-O-glucoside) were then added to the flask and stir to fully dissolve, then kept for 4 hours at 37° C. (water bath) with stirring.
# After 4 hours, samples were taken and acidified immediately with formic acid to pH=1.0 and analyzed by HPLC for the content of anthocyanosides. Degradation is expressed as decrease in peak area of individual peaks (calculated as % left after 4 hours).
# Samples were prepared as outlined above in the HPLC Analytical Method. Test stability samples were immediately acidified (to block degradation) and injected undiluted following the detailed description provided below.
# [3] = Example 1: stability of bilberry extract anthocyanosides, 4 hours at 37° C., pH 7.0, with/without DHLA or GSH (HPLC); details: for % left, GSH (4 hours) / Peak Area, GSH (4 hours): 20 mg reduced L-glutathione; for % left, GSH (4 hours) / Peak Area, GSH (4 hours) / % left, DHLA (4 hours) / Peak Area, DHLA (4 hours) / % left, Blank (4 hours) / Peak Area, Blank (4 hours): pH 7.0, 37° C.; for % left, DHLA (4 hours) / Peak Area, DHLA (4 hours): 30 mg dihydrolipoic acid; for Peak Area, Fresh (0 hours): bilberry extract 60 mg/100 ml sodium phosphate buffer pH 7.0, fresh sample; for % left, Blank (4 hours) / Peak Area, Blank (4 hours): unprotected
# Description: (0.048 mmol anthocyanosides expressed as cyanidin-3-O-glucoside) were added to a 100 ml flask and filled to volume with sodium phosphate buffer (5% [w/w], pH=7.0), and stirred until dissolution was complete. A 1 ml sample was taken immediately and acidified with formic acid to pH=1.0 and analyzed by HPLC for the content of anthocyanosides (Fresh Sample). The remaining solution was kept for 4 hours at 37° C. (water bath) with stirring. Thereafter another sample (Blank sample), representing unprotected degradation, was taken and acidified.
# (0.048 mmol expressed as cyanidin-3-O-glucoside) were then added and the flask was filled to volume with sodium phosphate buffer (5% [w/w], pH=7.0) and kept for 4 hours at 37° C. (water bath) with stirring.
# Quantitation: External standardization based on linear regression analysis. The response factors of all anthocyanosides separated is quantitified against cyanidin-3-O-glucoside.
# Test solutions from incubation experiments (with/without cells and with/without stabilizing agents) were used for analysis after stabilization of anthocyanosides with formic acid. Samples were cleared by filtration prior to injection on to HPLC-system.
# [4] = Example 3: stability of black currant extract anthocyanosides, 4 hours at 37° C., pH 7.0, with/without DHLA, GSH or L-cysteine (HPLC); details: for Peak Area, Fresh solution: black currant extract 60 mg/100 ml buffer pH 7.0, fresh sample; for % left, DHLA 20 mg / % left, GSH 20 mg / % left, L-cysteine 20 mg / Peak Area, DHLA 20 mg / Peak Area, GSH 20 mg / Peak Area, L-cysteine 20 mg / % left, Blank / Peak Area, Blank: pH 7.0, 37° C., 4 hours; for % left, Blank / Peak Area, Blank: unprotected
# Description: Sample a) 60 mg black currant extract [35% anthocyanosides] (0.037 mmol anthocyanosides expressed as cyanidin-3-O-rutinoside) were added to a 100 ml flask and filled to volume with sodium phosphate buffer (5% [w/w], pH=7.0) and stirred until dissolution was complete. A 1 ml sample was taken immediately, acidified with formic acid to pH=1.0 and analyzed by HPLC for the content of anthocyanosides (Fresh Sample). The remaining solution was kept for 4 hours at 37° C. (water bath) with stirring. Thereafter samples (Blank sample), representing unprotected degradation, were taken and acidified.
# as §1, with “then added and” for “added,”, “for 4 hours” for “for”, “stirring.” for “stirring. Every 15 minutes 1 ml samples were taken and analyzed for selected anthocyanosides by HPLC.”
# (§3) Sample c) 20 mg dihydrolipoic acid (0.096 mmol) were added to a 100 ml flask with 60 ml sodium phosphate buffer (5% [w/w], pH=7.0) and stirred until dissolution was completed. 60 mg black currant extract [35% anthocyanosides] (0.037 mmol anthocyanosides expressed as cyanidin-3-O-rutinoside) were added to the flask, filled to volume with sodium phosphate buffer (5% [w/w], pH=7.0) and kept for 4 hours at 37° C. (water bath) with stirring.
# as §3, with “d)” for “c)”, “L-cysteine” for “dihydrolipoic”, “(0.165” for “(0.096”, “complete.” for “completed.”
# After 4 hours samples were taken, acidified immediately with formic acid to pH=1.0 and analyzed by HPLC for the content of anthocyanosides. Degradation is expressed as decrease in peak area of individual peaks (calculated as % left after 4 hours).
# as §2
# HPLC Analytical Method (Materials, Instruments and Methods): […]
# [5] = GSH protected sample (20 mg), 0:00 h
# [6] = GSH protected sample (20 mg), 0:15 h
# [7] = GSH protected sample (20 mg), 0:45 h
# [8] = GSH protected sample (20 mg), 1:00 h
# [9] = GSH protected sample (20 mg), 1:15 h
# [10] = GSH protected sample (20 mg), 1:45 h
# [11] = GSH protected sample (20 mg), 2:00 h
# [12] = GSH protected sample (20 mg), 2:15 h
# [13] = GSH protected sample (20 mg), 2:45 h
# [14] = GSH protected sample (20 mg), 3:00 h
# [15] = GSH protected sample (20 mg), 3:15 h
# [16] = GSH protected sample (20 mg), 3:45 h
# [17] = GSH protected sample (20 mg), 4:00 h
# [18] = GSH protected sample (20 mg), 4:15 h
compound,measurement,setting,value
"OC[C@H]1O[C@@H](Oc2cc3c(O)cc(O)cc3[o+]c2-c2ccc(O)c(O)c2)[C@H](O)[C@@H](O)[C@@H]1O [Cn-3O-Glc, Cyanidin 3-o-glucoside]",Peak Area,"[1]; Blank sample, 0:00 h",491.1
same,Peak Area,"[1]; Blank sample, 0:15 h",368.9
same,Peak Area,"[1]; Blank sample, 0:30 h",361.9
same,Peak Area,"[1]; Blank sample, 0:45 h",321.0
same,Peak Area,"[1]; Blank sample, 1:00 h",312.0
same,Peak Area,"[1]; Blank sample, 1:30 h",293.4
same,Peak Area,"[1]; Blank sample, 1:45 h",283.8
same,Peak Area,"[1]; Blank sample, 2:00 h",256.7
same,Peak Area,"[1]; Blank sample, 2:15 h",250.3
same,Peak Area,"[1]; Blank sample, 2:30 h",243.9
same,Peak Area,"[1]; Blank sample, 2:45 h",226.8
same,Peak Area,"[1]; Blank sample, 3:00 h",213.7
same,Peak Area,"[1]; Blank sample, 3:15 h",204.9
same,Peak Area,"[1]; Blank sample, 3:30 h",180.1
same,Peak Area,"[1]; Blank sample, 3:45 h",181.6
same,Peak Area,"[1]; Blank sample, 4:00 h",154.0
same,%-residual anthocyanosides (% left),[1]; Blank,31%
same,Peak Area,[1]; [5],480.6
same,Peak Area,[1]; [6],426.1
same,Peak Area,[1]; [7],418.6
same,Peak Area,[1]; [8],423.8
same,Peak Area,[1]; [9],415.3
same,Peak Area,[1]; [10],376.4
same,Peak Area,[1]; [11],387.6
same,Peak Area,[1]; [12],356.5
same,Peak Area,[1]; [13],337.5
same,Peak Area,[1]; [14],349.5
same,Peak Area,[1]; [15],325.6
same,Peak Area,[1]; [16],312.6
same,Peak Area,[1]; [17],315.7
same,Peak Area,[1]; [18],300.3
same,%-residual anthocyanosides (% left),[1]; GSH-protected,66%
same,"Peak Area, Fresh solution",[2],987.9
same,"% left, L-cysteine 20 mg",[2],80.7%
same,"Peak Area, L-cysteine 20 mg",[2],797.5
same,"% left, Blank",[2],41.5%
same,"Peak Area, Blank",[2],410.3
same,"% left, GSH (4 hours)",[3],80.7%
same,"Peak Area, GSH (4 hours)",[3],797.5
same,"% left, DHLA (4 hours)",[3],67.9%
same,"Peak Area, DHLA (4 hours)",[3],671.1
same,"Peak Area, Fresh (0 hours)",[3],987.9
same,"% left, Blank (4 hours)",[3],41.5%
same,"Peak Area, Blank (4 hours)",[3],410.3
same,"Peak Area, Fresh solution",[4],491.1
same,"% left, DHLA 20 mg",[4],51.7%
same,"% left, GSH 20 mg",[4],64.3%
same,"% left, L-cysteine 20 mg",[4],38.0%
same,"Peak Area, DHLA 20 mg",[4],254.1
same,"Peak Area, GSH 20 mg",[4],315.7
same,"Peak Area, L-cysteine 20 mg",[4],186.8
same,"% left, Blank",[4],31.4%
same,"Peak Area, Blank",[4],154.0
"OC[C@H]1O[C@@H](Oc2cc3c(O)cc(O)cc3[o+]c2-c2cc(O)c(O)c(O)c2)[C@H](O)[C@@H](O)[C@@H]1O [Dp-3O-Glc, Delphinidin 3-o-glucoside]",Peak Area,"[1]; Blank sample, 0:00 h",1480.7
same,Peak Area,"[1]; Blank sample, 0:15 h",969.6
same,Peak Area,"[1]; Blank sample, 0:30 h",907.9
same,Peak Area,"[1]; Blank sample, 0:45 h",745.2
same,Peak Area,"[1]; Blank sample, 1:00 h",702.1
same,Peak Area,"[1]; Blank sample, 1:30 h",605.4
same,Peak Area,"[1]; Blank sample, 1:45 h",599.9
same,Peak Area,"[1]; Blank sample, 2:00 h",465.1
same,Peak Area,"[1]; Blank sample, 2:15 h",449.8
same,Peak Area,"[1]; Blank sample, 2:30 h",394.0
same,Peak Area,"[1]; Blank sample, 2:45 h",362.7
same,Peak Area,"[1]; Blank sample, 3:00 h",304.8
same,Peak Area,"[1]; Blank sample, 3:15 h",285.1
same,Peak Area,"[1]; Blank sample, 3:30 h",208.8
same,Peak Area,"[1]; Blank sample, 3:45 h",214.5
same,Peak Area,"[1]; Blank sample, 4:00 h",140.8
same,%-residual anthocyanosides (% left),[1]; Blank,10%
same,Peak Area,[1]; [5],1464.0
same,Peak Area,[1]; [6],1280.4
same,Peak Area,[1]; [7],1209.3
same,Peak Area,[1]; [8],1219.0
same,Peak Area,[1]; [9],1178.1
same,Peak Area,[1]; [10],1051.8
same,Peak Area,[1]; [11],1077.0
same,Peak Area,[1]; [12],981.9
same,Peak Area,[1]; [13],876.8
same,Peak Area,[1]; [14],917.2
same,Peak Area,[1]; [15],812.5
same,Peak Area,[1]; [16],742.7
same,Peak Area,[1]; [17],745.6
same,Peak Area,[1]; [18],682.0
same,%-residual anthocyanosides (% left),[1]; GSH-protected,51%
same,"Peak Area, Fresh solution",[2],726.6
same,"% left, L-cysteine 20 mg",[2],48.3%
same,"Peak Area, L-cysteine 20 mg",[2],350.8
same,"% left, Blank",[2],6.4%
same,"Peak Area, Blank",[2],46.3
same,"% left, GSH (4 hours)",[3],48.3%
same,"Peak Area, GSH (4 hours)",[3],350.8
same,"% left, DHLA (4 hours)",[3],57.1%
same,"Peak Area, DHLA (4 hours)",[3],414.8
same,"Peak Area, Fresh (0 hours)",[3],726.6
same,"% left, Blank (4 hours)",[3],6.4%
same,"Peak Area, Blank (4 hours)",[3],46.3
same,"Peak Area, Fresh solution",[4],1481
same,"% left, DHLA 20 mg",[4],52.0%
same,"% left, GSH 20 mg",[4],50.4%
same,"% left, L-cysteine 20 mg",[4],36.7%
same,"Peak Area, DHLA 20 mg",[4],770.7
same,"Peak Area, GSH 20 mg",[4],745.6
same,"Peak Area, L-cysteine 20 mg",[4],543.0
same,"% left, Blank",[4],9.5%
same,"Peak Area, Blank",[4],140.8
